pIC50: −log10 of the molar value.

Broadly, the pIC50 is −log10 of the IC50, conventionally taken in molar units.

This assay has as its target T1, USP25 (USP25-His6, Boston Biochem E-546) (Homo sapiens, UniProt Q9UHP3).
T1 construct: His6; purchased Boston Biochem E-546
T1 sequence (Q9UHP3 1-1055): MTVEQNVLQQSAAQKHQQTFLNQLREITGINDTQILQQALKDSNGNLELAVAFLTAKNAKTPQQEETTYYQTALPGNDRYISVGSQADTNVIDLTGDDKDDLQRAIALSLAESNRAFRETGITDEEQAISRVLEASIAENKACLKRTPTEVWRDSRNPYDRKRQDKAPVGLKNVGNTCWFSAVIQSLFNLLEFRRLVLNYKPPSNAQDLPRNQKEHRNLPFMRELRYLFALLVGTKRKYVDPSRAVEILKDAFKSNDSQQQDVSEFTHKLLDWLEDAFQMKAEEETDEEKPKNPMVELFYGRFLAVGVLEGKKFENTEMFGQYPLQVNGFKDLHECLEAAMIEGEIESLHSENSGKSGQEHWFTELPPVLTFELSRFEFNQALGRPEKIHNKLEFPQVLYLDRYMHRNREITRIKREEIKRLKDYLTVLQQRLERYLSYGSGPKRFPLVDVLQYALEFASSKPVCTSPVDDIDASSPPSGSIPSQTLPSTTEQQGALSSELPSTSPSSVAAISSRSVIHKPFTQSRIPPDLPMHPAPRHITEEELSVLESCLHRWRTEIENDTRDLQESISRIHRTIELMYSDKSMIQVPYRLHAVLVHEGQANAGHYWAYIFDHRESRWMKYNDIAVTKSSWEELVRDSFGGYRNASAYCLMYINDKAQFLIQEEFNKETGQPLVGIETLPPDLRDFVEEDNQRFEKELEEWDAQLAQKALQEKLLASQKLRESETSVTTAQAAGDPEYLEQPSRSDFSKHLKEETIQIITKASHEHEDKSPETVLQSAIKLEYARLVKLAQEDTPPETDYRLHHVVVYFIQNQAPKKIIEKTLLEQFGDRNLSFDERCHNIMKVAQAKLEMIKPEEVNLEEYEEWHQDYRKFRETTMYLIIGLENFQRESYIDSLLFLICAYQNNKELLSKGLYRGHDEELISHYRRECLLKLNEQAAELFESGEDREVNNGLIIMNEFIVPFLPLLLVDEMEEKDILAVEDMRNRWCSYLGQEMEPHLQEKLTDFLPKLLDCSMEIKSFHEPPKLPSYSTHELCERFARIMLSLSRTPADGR
The assay is described as follows: Ubiquitin-Rhodamine 110 Assay for USP25 Activity, Example A-2. The note with it: Ubiquitin-Rhodamine 110 assay, Example A-2; read-out: USP25 A-2 IC50 range. It counts as biochemical. Put shortly:
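Cleavage of ubiquitin-rhodamine 110 (25 nM, well below Km) by His-tagged USP25 at 75 pM is measured fluorimetrically after 45 min at room temperature and acid quench. Inhibitors are preincubated with enzyme for 30 minutes. IC50 values come from four-parameter logistic curve fitting.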
With `Cc1ccc2c(N)c(C(=O)N[C@H]3COc4cc(N5C[C@@H](N)[C@@]6(CCO6)C5)ccc4C3)sc2n1` [Example 339, 3-amino-N-[(3R)-7-[(4R,8R)-8-amino-1-oxa-6-azaspiro[3.4]octan-6-yl]-3,4-dihydro-2H-1-benzopyran-3-yl]-6-methylthieno[2,3-b]pyridine-2-carboxamide], the pIC50 was 5.70 to 6.70.
Regarding `CO[C@@]1(C)CN(c2ccc3c(c2)OC[C@H](NC(=O)c2sc4nc(C)ccc4c2N)C3)C[C@@H]1N` [Example 281, 3-amino-N-[(3R)-7-[(3S,4S)-4-amino-3-methoxy-3-methylpyrrolidin-1-yl]-3,4-dihydro-2H-1-benzopyran-3-yl]-6-methylthieno[2,3-b]pyridine-2-carboxamide], the pIC50 was 5.70 to 6.70.
As for `CO[C@@H]1CCN(c2ccc3c(c2)OC[C@H](NC(=O)c2sc4nc(C)cc(C)c4c2N)C3)C[C@H]1N` [Example 318, 3-amino-N-[(3R)-7-[(3R,4R)-3-amino-4-methoxypiperidin-1-yl]-3,4-dihydro-2H-1-benzopyran-3-yl]-4,6-dimethylthieno[2,3-b]pyridine-2-carboxamide], the pIC50 is 5.70 to 6.70.
For the compound `CO[C@]1(C)CN(c2ccc3c(n2)CC[C@H](NC(=O)c2sc4nc(C)cnc4c2N)C3)C[C@H]1N` [Example 280, 7-amino-N-[(6S)-2-[(3R,4R)-4-amino-3-methoxy-3-methylpyrrolidin-1-yl]-5,6,7,8-tetrahydroquinolin-6-yl]-3-methylthieno[2,3-b]pyrazine-6-carboxamide], the pIC50 is less than 5.70.
Regarding `Cc1ccc2c(N)c(C(=O)N[C@H]3COc4cc(N5C[C@H](N)[C@]6(CCO6)C5)ccc4C3)sc2n1` [Example 340, 3-amino-N-[(3R)-7-[(4S,8S)-8-amino-1-oxa-6-azaspiro[3.4]octan-6-yl]-3,4-dihydro-2H-1-benzopyran-3-yl]-6-methylthieno[2,3-b]pyridine-2-carboxamide], the pIC50 was 5.70 to 6.70.
As for `COC[C@@H]1CN(c2ccc3c(n2)CC[C@H](NC(=O)c2sc4nc(C)ccc4c2N)C3)C[C@H]1N` [Example 328, 3-amino-N-[(6S)-2-[(3S,4R)-3-amino-4-(methoxymethyl)pyrrolidin-1-yl]-5,6,7,8-tetrahydroquinolin-6-yl]-6-methylthieno[2,3-b]pyridine-2-carboxamide], the pIC50 is less than 5.70.
As for `Cc1ccc2c(N)c(C(=O)N[C@H]3CCc4nc(N5C[C@@H](N)[C@@H](OC(C)C)C5)ccc4C3)sc2n1` [Example 322, 3-amino-N-[(6S)-2-[(3R,4S)-3-amino-4-(propan-2-yloxy)pyrrolidin-1-yl]-5,6,7,8-tetrahydroquinolin-6-yl]-6-methylthieno[2,3-b]pyridine-2-carboxamide], the pIC50 was less than 5.70.
On to `CCOC[C@@H]1CN(c2ccc3c(c2)OC[C@H](NC(=O)c2sc4nc(C)ccc4c2N)C3)C[C@@H]1N` [Example 313, 3-amino-N-[(3R)-7-[(3R,4R)-3-amino-4-(ethoxymethyl)pyrrolidin-1-yl]-3,4-dihydro-2H-1-benzopyran-3-yl]-6-methylthieno[2,3-b]pyridine-2-carboxamide], for which the negative logarithm of the IC50 (pIC50) was 5.70 to 6.70.
`COC[C@@]1(C)CN(c2ccc3c(n2)CC[C@H](NC(=O)c2sc4nc(C)ccc4c2N)C3)C[C@@H]1N` [Example 341, 3-amino-N-[(6S)-2-[(3S,4R)-4-amino-3-(methoxymethyl)-3-methylpyrrolidin-1-yl]-5,6,7,8-tetrahydroquinolin-6-yl]-6-methylthieno[2,3-b]pyridine-2-carboxamide]: the pIC50 was 5.70 to 6.70.
`Cc1ccc2c(N)c(C(=O)N[C@H]3COc4cc(N5C[C@H]6CCN[C@H]6C5)ccc4C3)sc2n1` [Example 305, N-[(3R)-7-[(3aR,6aR)-octahydropyrrolo[3,4-b]pyrrol-5-yl]-3,4-dihydro-2H-1-benzopyran-3-yl]-3-amino-6-methylthieno[2,3-b]pyridine-2-carboxamide]: the pIC50 was 6.70 to 7.30.
The figure for `Cc1ccc2c(N)c(C(=O)N[C@H]3COc4cc(N5C[C@@H](N)[C@@]6(CCCO6)C5)ccc4C3)sc2n1` [Example 308, 3-amino-N-[(3R)-7-[(5R,9R)-9-amino-1-oxa-7-azaspiro[4.4]nonan-7-yl]-3,4-dihydro-2H-1-benzopyran-3-yl]-6-methylthieno[2,3-b]pyridine-2-carboxamide] is 5.70 to 6.70; for `CO[C@H]1[C@H](N)CN(c2ccc3c(c2)OC[C@H](NC(=O)c2sc4nc(C)ccc4c2N)C3)[C@H]1C` [Example 334, 3-amino-N-[(3R)-7-[(2S,3S,4R)-4-amino-3-methoxy-2-methylpyrrolidin-1-yl]-3,4-dihydro-2H-1-benzopyran-3-yl]-6-methylthieno[2,3-b]pyridine-2-carboxamide] it is 7.30 to 9.00.
For the compound `CO[C@H]1CN(c2ccc3c(n2)CC[C@H](NC(=O)c2sc4nc(C)ccc4c2N)C3)C[C@H]1N` [Example 270, 3-amino-N-[(6S)-2-[(3R,4S)-3-amino-4-methoxypyrrolidin-1-yl]-5,6,7,8-tetrahydroquinolin-6-yl]-6-methylthieno[2,3-b]pyridine-2-carboxamide], the pIC50 was less than 5.70.
`COC[C@@H]1CN(c2ccc3c(c2)OC[C@H](NC(=O)c2sc4nc(C)cc(C)c4c2N)C3)C[C@@H]1N` [Example 275, 3-amino-N-[(3R)-7-[(3R,4R)-3-amino-4-(methoxymethyl)pyrrolidin-1-yl]-3,4-dihydro-2H-1-benzopyran-3-yl]-4,6-dimethylthieno[2,3-b]pyridine-2-carboxamide]: the pIC50 is 5.70 to 6.70.
Take `Cc1ccc2c(N)c(C(=O)N[C@H]3COc4cc(N5C[C@@H](N)[C@@H](F)C5)ccc4C3)sc2n1` (single isomer, unassigned) [Example 3-5]: the pIC50 is 5.70 to 6.70.
The figure for `Cc1ccc2c(N)c(C(=O)N[C@H]3COc4cc(N5CC[C@@H](N)C5)ccc4C3)sc2n1` [Example 288, 3-amino-N-[(3R)-7-[(3R)-3-aminopyrrolidin-1-yl]-3,4-dihydro-2H-1-benzopyran-3-yl]-6-methylthieno[2,3-b]pyridine-2-carboxamide] is 5.70 to 6.70.
In the case of `CCOC[C@H]1CN(c2ccc3c(c2)OC[C@H](NC(=O)c2sc4nc(C)ccc4c2N)C3)C[C@H]1N` [Example 314, 3-amino-N-[(3R)-7-[(3S,4S)-3-amino-4-(ethoxymethyl)pyrrolidin-1-yl]-3,4-dihydro-2H-1-benzopyran-3-yl]-6-methylthieno[2,3-b]pyridine-2-carboxamide] it was 6.70 to 7.30.
As for `COC[C@H]1CN(c2ccc3c(c2)OC[C@H](NC(=O)c2sc4nc(C)cc(C)c4c2N)C3)C[C@H]1N` [Example 276, 3-amino-N-[(3R)-7-[(3S,4S)-3-amino-4-(methoxymethyl)pyrrolidin-1-yl]-3,4-dihydro-2H-1-benzopyran-3-yl]-4,6-dimethylthieno[2,3-b]pyridine-2-carboxamide], the pIC50 was 6.70 to 7.30.
For the compound `CCO[C@@H]1CN(c2ccc3c(c2)CC[C@H](NC(=O)c2sc4nc(C)ccc4c2N)C3)C[C@@H]1N` [Example 267, 3-amino-N-[(2S)-6-[(3S,4R)-3-amino-4-ethoxypyrrolidin-1-yl]-1,2,3,4-tetrahydronaphthalen-2-yl]-6-methylthieno[2,3-b]pyridine-2-carboxamide], the pIC50 is 5.70 to 6.70.
As for `N#Cc1c(N2CC3CCC(C2)N3)cc2c(c1F)C[C@@H](NC(=O)c1cnc3c(c1)[C@@H]1C[C@@H]1CN3)CO2` [Example 264, (6aS,7aR)-N-[(3R)-6-cyano-7-{3,8-diazabicyclo[3.2.1]octan-3-yl}-5-fluoro-3,4-dihydro-2H-1-benzopyran-3-yl]-5H,6H,6aH,7H,7aH-cyclopropa[c]1,8-naphthyridine-2-carboxamide], the negative logarithm of the IC50 (pIC50) was 7.30 to 9.00.
As to `CN[C@@H]1CN(c2ccc3c(n2)CC[C@H](NC(=O)c2sc4nc(C)ccc4c2N)C3)C[C@]1(C)O` [Example 332, 3-amino-N-[(6S)-2-[(3S,4R)-3-hydroxy-3-methyl-4-(methylamino)pyrrolidin-1-yl]-5,6,7,8-tetrahydroquinolin-6-yl]-6-methylthieno[2,3-b]pyridine-2-carboxamide], the negative logarithm of the IC50 (pIC50) is less than 5.70.
With `CO[C@H]1CCN(c2ccc3c(n2)CC[C@H](NC(=O)c2sc4nc(C)ccc4c2N)C3)C[C@@H]1N` (single isomer, unassigned) [Example 315], the pIC50 was 5.70 to 6.70.

For the origin of these results see US11524966B1 (Valo Early Discovery, Inc., priority 2017, dated 2022).
